Results on 17 molecules are retold here after US11590116B2 (THERAVANCE BIOPHARMA R&D IP, LLC, priority 2019, dated 2023).

Molecules are shown by their SMILES.

Test [1] has as its target T1, recombinant human ALK5 (TGF-βR1) protein (Homo sapiens, UniProt P36897).
T1 construct: purchased Life Technologies PR9075A
T1 sequence (P36897 34-503): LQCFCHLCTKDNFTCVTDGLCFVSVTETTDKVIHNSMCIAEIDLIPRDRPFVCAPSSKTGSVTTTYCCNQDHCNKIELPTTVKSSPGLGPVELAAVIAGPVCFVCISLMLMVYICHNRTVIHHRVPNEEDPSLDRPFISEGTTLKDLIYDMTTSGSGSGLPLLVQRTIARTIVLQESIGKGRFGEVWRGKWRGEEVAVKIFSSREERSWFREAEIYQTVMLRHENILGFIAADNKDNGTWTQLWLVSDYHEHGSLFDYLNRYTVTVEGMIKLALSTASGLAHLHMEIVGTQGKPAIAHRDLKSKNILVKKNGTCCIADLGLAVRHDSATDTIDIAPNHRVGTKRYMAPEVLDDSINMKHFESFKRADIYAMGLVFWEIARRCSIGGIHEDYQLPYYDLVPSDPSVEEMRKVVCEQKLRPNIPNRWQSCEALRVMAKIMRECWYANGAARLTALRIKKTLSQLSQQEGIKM
The test can be described thus: Biochemical ALK5 (TGF-βR1) assay to measure pKi (LANCE Ultra ULight kinase assay). As to conditions: apparent pKi from pIC50 by Cheng-Prusoff, read-out: ALK5 pKi (converted). In short, it runs like this: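 Dose range 10 μM–25 pM; enzyme + compound 60 min RT; ATP added (5× stock 125 μM, 2 mM DTT); 60 min 37 °C; stop with EDTA + Eu anti-phospho-Topo IIα Thr1342 Ab; TR-FRET ex 320/340, em 665 nm. 4-param pIC50 → pKi (Cheng-Prusoff).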

Test [2] has as its system TGF-β-stimulated SMAD3 phosphorylation in BEAS-2B cells. The test is described as follows: Cellular ALK5 potency assay, inhibition of TGF-β stimulated pSMAD3 formation in BEAS-2B cells. Format: cell-based. As to conditions: Homo sapiens; inhibition of TGF-β stimulated pSMAD3 formation, BEAS-2B cells; read-out: BEAS2B pIC50 (converted). The procedure, abridged: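 BEAS-2B human lung epithelial cells, seeded overnight, were pre-treated with compound in HBSS/25 mM HEPES/1% BSA for 1 h at 37 °C, then stimulated with TGF-β (final 10 ng/mL) for 30 min. Lysates were assayed for pSMAD3 by AlphaLISA; pIC50 came from dose-dependent signal change versus TGF-β-stimulated untreated cells.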

As for `Cc1nc(-c2n[nH]cc2-c2ccc3ncc(-c4cccn(C)c4=O)cc3n2)ccc1F` [Compound 674, 3-[6-[3-(5-fluoro-6-methyl-2-pyridyl)-1H-pyrazol-4-yl]-1,5-naphthyridin-3-yl]-1-methyl-pyridin-2-one], the Ki in test [1] is 0.0398 to 0.316 nM. Further, the IC50 in test [2] was under 20 nM.
The matching figures for `Cc1cccc(-c2n[nH]cc2-c2ccc3ncc(N4CC5CNCC54)cc3n2)n1` (stereo not shown) [Compound 260, 7-(3,6-diazabicyclo[3.2.0]heptan-6-yl)-2-[3-(6-methyl-2-pyridyl)-1H-pyrazol-4-yl]-1,5-naphthyridine]: 0.398 to 3.16 nM and 200 to 1260 nM.
As for `Cc1cccc(-c2[nH]cnc2-c2ccc3ncc(C(=O)O[C@@H]4CCCC[C@@H]4N)cc3c2)n1` [Compound 881, (1R,2S)-2-aminocyclohexyl 6-(5-(6-methylpyridin-2-yl)-1H-imidazol-4-yl)quinoline-3-carboxylate], the Ki in test [1] was 3.98 to 31.6 nM. Also, in test [2], the IC50 was 200 to 1260 nM.
For `Cc1cccc(-c2[nH]cnc2-c2ccc3ncc(C4=CC[C@H](N)CC4)cc3c2)n1` [Compound 81, (1R)-4-[6-[5-(6-methyl-2-pyridyl)-1H-imidazol-4-yl]-3-quinolyl]cyclohex-3-en-1-amine] the same measures were under 0.0316 nM and under 20 nM.
For `Cc1cccc(-c2n[nH]cc2-c2ccc3ncc(N4CC(N)C4)cc3n2)n1` [Compound 193, 1-[6-[3-(6-methyl-2-pyridyl)-1H-pyrazol-4-yl]-1,5-naphthyridin-3-yl]azetidin-3-amine] the same measures were 0.0398 to 0.316 nM and 25.1 to 158 nM.
The matching figures for `Cc1cccc(-c2[nH]cnc2-c2ccc3ncc(C(=O)OC4CNC4)cc3c2)n1` [Compound 739, azetidin-3-yl 6-[5-(6-methyl-2-pyridyl)-1H-imidazol-4-yl]quinoline-3-carboxylate]: 0.0398 to 0.316 nM and 25.1 to 158 nM.
Consider `Cc1cccc(-c2[nH]cnc2-c2ccc3ncc(N4CC(N)C4)cc3c2)n1` [Compound 460, 1-[6-[5-(6-methyl-2-pyridyl)-1H-imidazol-4-yl]-3-quinolyl]azetidin-3-amine], for which, in test [1], the Ki is 0.0398 to 0.316 nM. For the same molecule, the IC50 in test [2] was 25.1 to 158 nM.
For `Cc1cccc(-c2[nH]cnc2-c2ccc3ncc(NCCN4CCC5(CCNCC5)C4)cc3c2)n1` [Compound 703, N-[2-(2,8-diazaspiro[4.5]decan-2-yl)ethyl]-6-[5-(6-methyl-2-pyridyl)-1H-imidazol-4-yl]quinolin-3-amine] the same measures were 0.0398 to 0.316 nM and 25.1 to 158 nM.
For `Cc1cccc(-c2[nH]cnc2-c2ccc3ncc(C4=CCN(C)C4)cc3c2)n1` [Compound 16, 3-(1-methyl-2,5-dihydropyrrol-3-yl)-6-[5-(6-methyl-2-pyridyl)-1H-imidazol-4-yl]quinoline] the same measures were under 0.0316 nM and under 20 nM.
As for `Cc1cccc(-c2[nH]cnc2-c2ccc3ncc(C4=CC[C@@H](NC(=O)[C@H]5CCCN5)CC4)cc3c2)n1` [Compound 777, (2R)-N-[(1S)-4-[6-[5-(6-methyl-2-pyridyl)-1H-imidazol-4-yl]-3-quinolyl]cyclohex-3-en-1-yl]pyrrolidine-2-carboxamide], the Ki in test [1] is 0.0398 to 0.316 nM. Besides, in test [2], the IC50 is 25.1 to 158 nM.
The matching figures for `Cc1cccc(-c2[nH]cnc2-c2ccc3ncc(-c4cc(C(=O)OC5CNC5)cs4)cc3c2)n1` [Compound 1057, azetidin-3-yl 5-[6-[5-(6-methyl-2-pyridyl)-1H-imidazol-4-yl]-3-quinolyl]thiophene-3-carboxylate]: under 0.0316 nM and 25.1 to 158 nM.
In the case of `Cc1cccc(-c2[nH]cnc2-c2ccc3ncc(N4CC5(CNC5)C4)cc3c2)n1` [Compound 131, 3-(2,6-diazaspiro[3.3]heptan-2-yl)-6-[5-(6-methyl-2-pyridyl)-1H-imidazol-4-yl]quinoline], the Ki in test [1] is under 0.0316 nM. Besides, in test [2], the IC50 is 25.1 to 158 nM.
Regarding `Cc1cccc(-c2[nH]cnc2-c2ccc3ncc(C4=CCC5(CCNCC5)CC4)cc3c2)n1` [Compound 392, 9-(6-(5-(6-methylpyridin-2-yl)-1H-imidazol-4-yl)quinolin-3-yl)-3-azaspiro[5.5]undec-8-ene], in test [1], the Ki is 0.0398 to 0.316 nM. Besides, the IC50 in test [2] was 25.1 to 158 nM.
For `Cc1cccc(-c2[nH]cnc2-c2ccc3ncc(-c4cc(C(=O)OC5CCNCC5)cs4)cc3c2)n1` [Compound 1139, 4-piperidyl 5-[6-[5-(6-methyl-2-pyridyl)-1H-imidazol-4-yl]-3-quinolyl]thiophene-3-carboxylate] the same measures were under 0.0316 nM and 25.1 to 158 nM.
On to `Cc1cccc(-c2[nH]ncc2-c2ccc3nccc(C(=O)OC[C@H]4CCCCN4)c3c2)n1` [Compound 1095, [(2R)-2-piperidyl]methyl 6-[5-(6-methyl-2-pyridyl)-1H-pyrazol-4-yl]quinoline-4-carboxylate], for which, in test [1], the Ki was 0.398 to 3.16 nM. Moreover, in test [2], the IC50 was 25.1 to 158 nM.
For `Cc1cccc(-c2[nH]cnc2-c2ccc3ncc(NCCN4C[C@@H](C)N[C@@H](C)C4)cc3c2)n1` [Compound 313, N-(2-((3R,5S)-3,5-dimethylpiperazin-1-yl)ethyl)-6-(5-(6-methylpyridin-2-yl)-1H-imidazol-4-yl)quinolin-3-amine] the same measures were 0.0398 to 0.316 nM and 25.1 to 158 nM.
As for `Cc1cccc(-c2nnn(Cc3ccccc3)c2-c2ccc3ncc(N4CCCNCC4)cc3n2)n1` [Compound 257, 2-[3-benzyl-5-(6-methyl-2-pyridyl)triazol-4-yl]-7-(1,4-diazepan-1-yl)-1,5-naphthyridine], in test [1], the Ki was 0.0398 to 0.316 nM. In addition, the IC50 in test [2] was 200 to 1260 nM.
